Values after ≈ are worked out from the molar mass of the structure shown. Where two headings read alike, the source gives them in different places.
What was measured:
Experiment in all cases: MIC, agar dilution test (multipoint inoculator)
Assay type in all cases: cell-based
E. coli = conditions: Escherichia coli, Isosensitest medium pH 7.2
Text: (§1) *Agar dilution test (multipoint inoculator) Isosensitest medium pH 7.2

Klebsiella pneum. = tested on: Klebsiella pneum.
Text: as §1

Proteus mir. = conditions: Isosensitest medium pH 7.2
Text: as §1

Proteus morg. = conditions: Isosensitest medium pH 7.2
Text: as §1

Proteus vulg. = tested on: Proteus vulg.
Text: as §1

Providencia stuartei = tested on: Providencia stuartei
Text: as §1

Psdm. aeruginosa = conditions: Pseudomonas aeruginosa, Isosensitest medium pH 7.2
Text: as §1

Serratia marc. = conditions: strain 16040, Isosensitest medium pH 7.2
Text: as §1

Staph. aureus = conditions: Staphylococcus aureus, Isosensitest medium pH 7.2
Text: as §1

Strepto. faecalis = conditions: Isosensitest medium pH 7.2
Text: as §1

[1] = pH 7.2, strain 455/7, read-out: MIC
[2] = pH 7.2, strain Neumann, read-out: MIC
[3] = pH 7.2, strain 57USA, Isosensitest medium pH 7.2, read-out: MIC
[4] = pH 7.2, strain 63, Isosensitest medium pH 7.2, read-out: MIC
[5] = pH 7.2, strain 6179, Isosensitest medium pH 7.2, read-out: MIC
[6] = pH 7.2, strain 6318, Isosensitest medium pH 7.2, read-out: MIC
[7] = pH 7.2, strain 8085, Isosensitest medium pH 7.2, read-out: MIC
[8] = pH 7.2, strain 8175, read-out: MIC
[9] = pH 7.2, strain 8223, read-out: MIC
[10] = strain 1017, Isosensitest medium pH 7.2, read-out: MIC
[11] = pH 7.2, strain 12012, Isosensitest medium pH 7.2
[12] = pH 7.2, strain 12052, Isosensitest medium pH 7.2

| Structure (SMILES) | MIC (E. coli; [1]) [µg/mL] | MIC (E. coli; pH 7.2, strain 4418) [µg/mL] | MIC (E. coli; pH 7.2, strain A261) [µg/mL] | MIC (E. coli; [2]) [µg/mL] | MIC (E. coli; pH 7.2, strain T7) [µg/mL] | MIC (Klebsiella pneum.; [3]) [µg/mL] | MIC (Klebsiella pneum.; [4]) [µg/mL] | MIC (Klebsiella pneum.; [5]) [µg/mL] | MIC (Klebsiella pneum.; [6]) [µg/mL] | MIC (Klebsiella pneum.; [7]) [µg/mL] | MIC (Providencia stuartei; [11]) [µg/mL] | MIC (Providencia stuartei; [12]) [µg/mL] | MIC (Psdm. aeruginosa; pH 7.2, strain Ellsworth) [µg/mL] | MIC (Psdm. aeruginosa; pH 7.2, strain Walter) [µg/mL] | MIC (Serratia marc.) [µg/mL] | MIC (Staph. aureus; pH 7.2, strain 133) [µg/mL] | MIC (Staph. aureus; pH 7.2, strain 1756) [µg/mL] | MIC (Staph. aureus; pH 7.2, strain FK422) [µg/mL] | MIC (Strepto. faecalis; pH 7.2, strain 9790) [µg/mL] | MIC (Strepto. faecalis; pH 7.2, strain 27101) [µg/mL] | also measured |
| --- | --- | --- | --- | --- | --- | --- | --- | --- | --- | --- | --- | --- | --- | --- | --- | --- | --- | --- | --- | --- | --- |
| O=C(O)c1cn(C2CC2)c2cc(N3CCC(O)C3)c(F)cc2c1=O (racemic) [Example 1, 1-cyclopropyl-6-fluoro-1,4-dihydro-7-(3-hydroxy-1-pyrrolidinyl)-4-oxo-3-quinolinecarboxylic acid] | 32 (≈ 96.3 µM) | < 0.015 | < 0.015 | ≤ 0.015 | < 0.015 | 0.125 (≈ 0.376 µM) | < 0.015 | 0.125 (≈ 0.376 µM) | 0.06 (≈ 0.181 µM) | ≤ 0.015 | ≤ 0.015 | 32 (≈ 96.3 µM) | 0.125 (≈ 0.376 µM) | 1 (≈ 3.01 µM) | 32 (≈ 96.3 µM) | ≤ 0.015 | ≤ 0.015 | ≤ 0.015 | 0.125 (≈ 0.376 µM) | 0.125 (≈ 0.376 µM) | MIC (Proteus mir.; [8]): 0.06 µg/mL (≈ 0.181 µM); MIC (Proteus mir.; [9]): 2 µg/mL (≈ 6.02 µM); MIC (Proteus morg.; strain 932, read-out: MIC): ≤ 0.015 µg/mL; MIC (Proteus morg.; strain 11006): ≤ 0.015 µg/mL; MIC (Proteus vulg.; [10]): ≤ 0.015 µg/mL |
| O=C(O)c1cn(C2CC2)c2cc(N3CCNCC3)c(F)cc2c1=O [Ciprofloxacin, 1-cyclopropyl-6-fluoro-1,4-dihydro-4-oxo-7-(1-piperazinyl)-3-quinolinecarboxylic acid, reference compound] | 1 (≈ 3.02 µM) |  |  | ≤ 0.015 |  |  |  |  |  |  | ≤ 0.015 | 16 (≈ 48.3 µM) | 0.06 (≈ 0.181 µM) | 0.5 (≈ 1.51 µM) | 8 (≈ 24.1 µM) | 0.25 (≈ 0.754 µM) | 0.25 (≈ 0.754 µM) | 0.5 (≈ 1.51 µM) | 0.5 (≈ 1.51 µM) | 0.25 (≈ 0.754 µM) | MIC (E. coli; pH 7.2, strain 4418, read-out: MIC): ≤ 0.015 µg/mL; MIC (E. coli; pH 7.2, strain A261, read-out: MIC): ≤ 0.015 µg/mL; MIC (E. coli; pH 7.2, strain T7, read-out: MIC): ≤ 0.015 µg/mL; MIC (Klebsiella pneum.; pH 7.2, strain 57USA, Isosensitest medium pH 7.2): ≤ 0.015 µg/mL; MIC (Klebsiella pneum.; pH 7.2, strain 63, Isosensitest medium pH 7.2): 0.03 µg/mL (≈ 0.0905 µM); MIC (Klebsiella pneum.; pH 7.2, strain 6318, Isosensitest medium pH 7.2): 0.06 µg/mL (≈ 0.181 µM); MIC (Klebsiella pneum.; pH 7.2, strain 8085, Isosensitest medium pH 7.2): ≤ 0.015 µg/mL; MIC (Proteus mir.; pH 7.2, strain 8175): 0.06 µg/mL (≈ 0.181 µM); MIC (Proteus mir.; pH 7.2, strain 8223): 4 µg/mL (≈ 12.1 µM); MIC (Proteus morg.; pH 7.2, strain 932): < 0.015 µg/mL; MIC (Proteus morg.; pH 7.2, strain 11006): ≤ 0.015 µg/mL; MIC (Proteus vulg.; pH 7.2): ≤ 0.015 µg/mL |
| O=C(O)c1cn(C2CC2)c2c(Cl)c(N3CCC(O)C3)c(F)cc2c1=O (centres unmarked) [Example 3, 8-chloro-1-cyclopropyl-7-fluoro-1,4-dihydro-7-(3-hydroxy-1-pyrrolidinyl)-4-oxo-3-quinolinecarboxylic acid] | 0.25 (≈ 0.682 µM) | ≤ 0.015 | ≤ 0.015 | ≤ 0.015 | ≤ 0.015 | ≤ 0.015 | ≤ 0.015 | < 0.015 | ≤ 0.015 | ≤ 0.015 | ≤ 0.015 | 1 (≈ 2.73 µM) | ≤ 0.015 | 0.25 (≈ 0.682 µM) | 1 (≈ 2.73 µM) | ≤ 0.015 | ≤ 0.015 | ≤ 0.015 | ≤ 0.015 | ≤ 0.015 | MIC (Proteus mir.; [8]): ≤ 0.015 µg/mL; MIC (Proteus mir.; [9]): 0.06 µg/mL (≈ 0.164 µM); MIC (Proteus morg.; strain 932, read-out: MIC): ≤ 0.015 µg/mL; MIC (Proteus morg.; strain 11006): ≤ 0.015 µg/mL; MIC (Proteus vulg.; [10]): ≤ 0.015 µg/mL |

— US4820716A, “7-(1-Pyrrolidinyl)-quinolonecarboxylic acid derivatives” (Bayer Aktiengesellschaft, priority 1986, dated 1989)
